Tested on: MV-4-11 cells
Test: Gene expression microarray analysis (Affymetrix PrimeView) and GSEA
Format: cell-based, human
Parameters: RFU PODN (11730768_x_at) / Fold change /veh PODN (11730768_x_at) / RFU LINC00158 (11744669_a_at) / Fold change /veh LINC00158 (11744669_a_at) / RFU DUSP10 (11751237_a_at) / Fold change /veh DUSP10 (11751237_a_at) / RFU ID3 (11757404_x_at) / Fold change /veh ID3 (11757404_x_at) / RFU PLEKHG5 (11737974_s_at) / Fold change /veh PLEKHG5 (11737974_s_at) / RFU LRRC4B (11730491_at) / Fold change /veh LRRC4B (11730491_at) / RFU GIMAP4 (11747438_a_at) / Fold change /veh GIMAP4 (11747438_a_at) / RFU KRT8 (11758183_x_at) / Fold change /veh KRT8 (11758183_x_at) / RFU CNN1 (11734310_a_at) / Fold change /veh CNN1 (11734310_a_at) / RFU VPS37D (11726825_at) / Fold change /veh VPS37D (11726825_at) / RFU C10orf10 (11716522_x_at) / Fold change /veh C10orf10 (11716522_x_at) / RFU KIR2DL2 /// KIR2DL4 /// KIR2DL5A /// KIR2DL5B /// KIR2DS1 /// KIR2DS2 /// KIR2DS3 /// KIR2DS4 /// KIR3DL3 /// KIR3DL3 /// KIR3DS1 (11738374_at) / Fold change /veh KIR2DL2 /// KIR2DL4 /// KIR2DL5A /// KIR2DL5B /// KIR2DS1 /// KIR2DS2 /// KIR2DS3 /// KIR2DS4 /// KIR3DL3 /// KIR3DL3 /// KIR3DS1 (11738374_at) / RFU C1QL1 (11718748_at) / Fold change /veh C1QL1 (11718748_at) / RFU TMPRSS4 (11747572_a_at) / Fold change /veh TMPRSS4 (11747572_a_at) / RFU HAMP (11756126_x_at) / Fold change /veh HAMP (11756126_x_at) / RFU RNFT2 (11725882_a_at) / Fold change /veh RNFT2 (11725882_a_at) / RFU NR4A2 (11747474_a_at) / Fold change /veh NR4A2 (11747474_a_at) / RFU ABCC12 (11746883_a_at) / Fold change /veh ABCC12 (11746883_a_at) / RFU TMEM136 (11760407_x_at) / Fold change /veh TMEM136 (11760407_x_at) / RFU CLDN22 /// WWC2 (11732394_at) / Fold change /veh CLDN22 /// WWC2 (11732394_at) / RFU HLA-DPB1 (11760878_x_at) / Fold change /veh HLA-DPB1 (11760878_x_at) / RFU SPINT1 (11716480_a_at) / Fold change /veh SPINT1 (11716480_a_at) / RFU GAP43 (11754022_s_at) / Fold change /veh GAP43 (11754022_s_at) / RFU A4GNT (11735810_at) / Fold change /veh A4GNT (11735810_at) / RFU PRB3 (11715151_x_at) / Fold change /veh PRB3 (11715151_x_at) / RFU TUBB4B (11761932_at) / Fold change /veh TUBB4B (11761932_at) / RFU CAPN14 (11732068_a_at) / Fold change /veh CAPN14 (11732068_a_at) / RFU TMCC2 (11721928_a_at) / Fold change /veh TMCC2 (11721928_a_at) / RFU IRGQ (11745062_a_at) / Fold change /veh IRGQ (11745062_a_at) / RFU FAM174B (11720279_a_at) / Fold change /veh FAM174B (11720279_a_at) / RFU TMPRSS4 (11748680_a_at) / Fold change /veh TMPRSS4 (11748680_a_at) / RFU FAM212B (11763350_a_at) / Fold change /veh FAM212B (11763350_a_at) / RFU PLEKHG5 (11743358_a_at) / Fold change /veh PLEKHG5 (11743358_a_at) / RFU ZSCAN30 (11745921_a_at) / Fold change /veh ZSCAN30 (11745921_a_at) / RFU CMKLR1 (11741424_a_at) / Fold change /veh CMKLR1 (11741424_a_at) / RFU LOC101060620 /// MAPK8IP1 (11723275_at) / Fold change /veh LOC101060620 /// MAPK8IP1 (11723275_at) / RFU SPTSSB (11747773_x_at) / Fold change /veh SPTSSB (11747773_x_at) / RFU PRSS12 (11739890_at) / Fold change /veh PRSS12 (11739890_at) / RFU BIN1 (11741810_x_at) / Fold change /veh BIN1 (11741810_x_at) / RFU WNT11 (11732464_a_at) / Fold change /veh WNT11 (11732464_a_at) / RFU C10orf10 (11716521_a_at) / Fold change /veh C10orf10 (11716521_a_at) / RFU C5orf56 (11738089_at) / Fold change /veh C5orf56 (11738089_at) / RFU CYB561 (11721691_x_at) / Fold change /veh CYB561 (11721691_x_at) / RFU ANKRD19P (11752326_a_at) / Fold change /veh ANKRD19P (11752326_a_at) / RFU OR2T12 /// OR2T33 /// OR2T8 (11738714_s_at) / Fold change /veh OR2T12 /// OR2T33 /// OR2T8 (11738714_s_at) / RFU VCAN (11748164_a_at) / Fold change /veh VCAN (11748164_a_at) / RFU JSRP1 (11732532_at) / Fold change /veh JSRP1 (11732532_at) / RFU KRTAP10-11 (11738290_x_at) / Fold change /veh KRTAP10-11 (11738290_x_at) / RFU MYO3A (11730013_a_at) / Fold change /veh MYO3A (11730013_a_at) / RFU EBF3 (11725865_a_at) / Fold change /veh EBF3 (11725865_a_at) / RFU CAMK2N1 (11719241_x_at) / Fold change /veh CAMK2N1 (11719241_x_at) / RFU C5orf56 (11738088_a_at) / Fold change /veh C5orf56 (11738088_a_at) / RFU OLFML3 (11715873_a_at) / Fold change /veh OLFML3 (11715873_a_at) / RFU LOC100653217 /// NTM (11731650_a_at) / Fold change /veh LOC100653217 /// NTM (11731650_a_at) / RFU MAPK11 (11762145_a_at) / Fold change /veh MAPK11 (11762145_a_at) / RFU FIZ1 (11724087_x_at) / Fold change /veh FIZ1 (11724087_x_at) / RFU OASL (11726364_x_at) / Fold change /veh OASL (11726364_x_at) / RFU SOX15 (11748057_x_at) / Fold change /veh SOX15 (11748057_x_at) / RFU CD79A (11719716_a_at) / Fold change /veh CD79A (11719716_a_at) / RFU HIST1H1D (11736915_at) / Fold change /veh HIST1H1D (11736915_at) / RFU CASKIN2 (11723855_a_at) / Fold change /veh CASKIN2 (11723855_a_at) / RFU LOC730098 (11760151_x_at) / Fold change /veh LOC730098 (11760151_x_at) / RFU OR4N2 (11742367_at) / Fold change /veh OR4N2 (11742367_at) / RFU PRRT2 (11749266_a_at) / Fold change /veh PRRT2 (11749266_a_at) / RFU SNX32 (11753110_a_at) / Fold change /veh SNX32 (11753110_a_at) / RFU CDHR5 (11726645_a_at) / Fold change /veh CDHR5 (11726645_a_at) / RFU RCAN1 (11760418_a_at) / Fold change /veh RCAN1 (11760418_a_at) / RFU FAM167A (11723789_a_at) / Fold change /veh FAM167A (11723789_a_at) / RFU FAM26E (11764081_at) / Fold change /veh FAM26E (11764081_at) / RFU ISYNA1 (11749810_s_at) / Fold change /veh ISYNA1 (11749810_s_at) / RFU ACY1 (11761880_at) / Fold change /veh ACY1 (11761880_at) / RFU 11764098_at / Fold change /veh 11764098_at / RFU SAMD14 (11745864_x_at) / Fold change /veh SAMD14 (11745864_x_at) / RFU NPB (11741838_a_at) / Fold change /veh NPB (11741838_a_at) / RFU TMPRSS6 (11731388_a_at) / Fold change /veh TMPRSS6 (11731388_a_at) / RFU KRTAP10-2 (11738614_at) / Fold change /veh KRTAP10-2 (11738614_at) / RFU ARHGAP8 /// PRR5-ARHGAP8 (11727945_x_at) / Fold change /veh ARHGAP8 /// PRR5-ARHGAP8 (11727945_x_at) / RFU KRTAP5-7 /// NADSYN1 (11734609_at) / Fold change /veh KRTAP5-7 /// NADSYN1 (11734609_at) / RFU RASL12 (11751679_a_at) / Fold change /veh RASL12 (11751679_a_at) / RFU CDKN2B (11736163_a_at) / Fold change /veh CDKN2B (11736163_a_at) / RFU PRF1 (11729649_at) / Fold change /veh PRF1 (11729649_at) / RFU, ZNF638 /// ZNF638-IT1 / Fold change vs veh, ZNF638 /// ZNF638-IT1 / RFU, PANK3 / Fold change vs veh, PANK3 / RFU, SH3YL1 / Fold change vs veh, SH3YL1 / RFU, ZEB2 / Fold change vs veh, ZEB2 / RFU, NRIP1 / Fold change vs veh, NRIP1 / RFU, PTTG1IP / Fold change vs veh, PTTG1IP / RFU, CAPN2 / Fold change vs veh, CAPN2 / RFU, MED14 / Fold change vs veh, MED14 / RFU, SNORA58 / Fold change vs veh, SNORA58 / RFU, C1orf63 / Fold change vs veh, C1orf63 / RFU, LRRFIP1 / Fold change vs veh, LRRFIP1 / RFU, NDUFAF7 / Fold change vs veh, NDUFAF7 / RFU, SLC12A2 / Fold change vs veh, SLC12A2 / RFU, IBTK / Fold change vs veh, IBTK / RFU, ESF1 / Fold change vs veh, ESF1 / Fold change vs veh, TMEM50B / RFU, TAOK1 / Fold change vs veh, TAOK1 / RFU, ACBD3 / Fold change vs veh, ACBD3 / RFU, TMA16 / Fold change vs veh, TMA16 / RFU, RWDD3 / Fold change vs veh, RWDD3 / RFU, BCAT1 / Fold change vs veh, BCAT1 / RFU, EDEM3 / Fold change vs veh, EDEM3 / RFU, TMEM33 / Fold change vs veh, TMEM33 / RFU, WDR75 / Fold change vs veh, WDR75 / RFU, AHCTF1 / Fold change vs veh, AHCTF1 / RFU, TFRC / Fold change vs veh, TFRC / RFU, ZDHHC17 / Fold change vs veh, ZDHHC17 / RFU, NOM1 / Fold change vs veh, NOM1 / RFU, ARL8B / Fold change vs veh, ARL8B / RFU, ZBTB11 / Fold change vs veh, ZBTB11 / RFU, TAMM41 / Fold change vs veh, TAMM41 / RFU, KIAA1704 /// LOC100996395 / Fold change vs veh, KIAA1704 /// LOC100996395 / RFU, ING1 / Fold change vs veh, ING1 / RFU, TRMT61B / Fold change vs veh, TRMT61B / RFU, FUBP3 / Fold change vs veh, FUBP3 / RFU, TP53 / Fold change vs veh, TP53 / RFU, TNKS2 / Fold change vs veh, TNKS2 / RFU, ZFP14 / Fold change vs veh, ZFP14 / RFU, ACTR2 / Fold change vs veh, ACTR2 / RFU, PPP3R1 / Fold change vs veh, PPP3R1 / RFU, PIK3R1 / Fold change vs veh, PIK3R1 / RFU, HNRNPA1 / Fold change vs veh, HNRNPA1 / RFU, RNF170 / Fold change vs veh, RNF170 / RFU, ZNF28 / Fold change vs veh, ZNF28 / RFU, RNGTT / Fold change vs veh, RNGTT / RFU, OGT / Fold change vs veh, OGT / RFU, BRD1 / Fold change vs veh, BRD1 / RFU, MARS / Fold change vs veh, MARS / RFU, ZNF655 / Fold change vs veh, ZNF655 / RFU, FAHD1 / Fold change vs veh, FAHD1 / RFU, BDP1 / Fold change vs veh, BDP1 / RFU, LRRCC1 / Fold change vs veh, LRRCC1 / RFU, ARID1A / Fold change vs veh, ARID1A / RFU, ZNF146 / Fold change vs veh, ZNF146 / RFU, ZNF330 / Fold change vs veh, ZNF330 / RFU, GPN3 / Fold change vs veh, GPN3 / RFU, C9orf123 / Fold change vs veh, C9orf123 / RFU, N4BP2L2 / Fold change vs veh, N4BP2L2 / RFU, ARFIP1 / Fold change vs veh, ARFIP1 / RFU, FAM179B / Fold change vs veh, FAM179B / RFU, BCL10 / Fold change vs veh, BCL10 / RFU, UHRF1BP1L / Fold change vs veh, UHRF1BP1L / RFU, BET1 / Fold change vs veh, BET1 / RFU, CNOT2 / Fold change vs veh, CNOT2 / RFU, ZNF268 / Fold change vs veh, ZNF268 / Fold change vs veh, ZNF507 / RFU, DGCR2 / Fold change vs veh, DGCR2 / RFU, WDSUB1 / Fold change vs veh, WDSUB1 / Fold change vs veh, HSP90B1 /// MIR3652 / RFU, ADSS / Fold change vs veh, ADSS / RFU, GK / Fold change vs veh, GK / RFU, ZNF148 / Fold change vs veh, ZNF148 / RFU, TAF9 / Fold change vs veh, TAF9 / RFU, SLC1A5 / Fold change vs veh, SLC1A5 / RFU, SLMO2 / Fold change vs veh, SLMO2 / RFU, ABCC4 / Fold change vs veh, ABCC4 / RFU, LOC101060439 /// RAP1B / Fold change vs veh, LOC101060439 /// RAP1B / RFU, RFX7 / Fold change vs veh, RFX7 / RFU, GTPBP10 / Fold change vs veh, GTPBP10 / RFU, CNEP1R1 / Fold change vs veh, CNEP1R1 / RFU, BIVM-ERCC5 /// ERCC5 / Fold change vs veh, BIVM-ERCC5 /// ERCC5 / RFU, ILF3 / Fold change vs veh, ILF3 / RFU 11762660_at / Fold change /veh 11762660_at / RFU VCAN (11757783_s_at) / Fold change /veh VCAN (11757783_s_at) / RFU DDX43 (11728927_at) / Fold change /veh DDX43 (11728927_at) / RFU KRT8 (11758188_x_at) / Fold change /veh KRT8 (11758188_x_at) / RFU NKD1 (11759106_at) / Fold change /veh NKD1 (11759106_at) / RFU SRD5A1 (11742802_a_at) / Fold change /veh SRD5A1 (11742802_a_at) / RFU TPSAB1 /// TPSB2 (11721975_s_at) / Fold change /veh TPSAB1 /// TPSB2 (11721975_s_at) / RFU GSTM3 (11746129_a_at) / Fold change /veh GSTM3 (11746129_a_at) / RFU IL23R (11737362_x_at) / Fold change /veh IL23R (11737362_x_at) / RFU TMEM51 (11727254_a_at) / Fold change /veh TMEM51 (11727254_a_at) / RFU PIWIL2 (11732686_x_at) / Fold change /veh PIWIL2 (11732686_x_at) / RFU ORM1 (11744905_x_at) / Fold change /veh ORM1 (11744905_x_at) / RFU CCDC152 (11743942_at) / Fold change /veh CCDC152 (11743942_at) / RFU ECM1 (11717891_a_at) / Fold change /veh ECM1 (11717891_a_at) / RFU IL23R (11748794_a_at) / Fold change /veh IL23R (11748794_a_at) / RFU TNFAIP8L3 (11732012_x_at) / Fold change /veh TNFAIP8L3 (11732012_x_at) / RFU MBOAT4 (11741988_at) / Fold change /veh MBOAT4 (11741988_at) / RFU 11764193_at / Fold change /veh 11764193_at / RFU TMEM53 (11763286_at) / Fold change /veh TMEM53 (11763286_at) / RFU MAGEB2 (11727129_at) / Fold change /veh MAGEB2 (11727129_at) / RFU TMEM200A (11744735_a_at) / Fold change /veh TMEM200A (11744735_a_at) / RFU CCDC152 (11751479_a_at) / Fold change /veh CCDC152 (11751479_a_at) / RFU FAM211A (11726209_a_at) / Fold change /veh FAM211A (11726209_a_at) / RFU RGS16 (11746705_a_at) / Fold change /veh RGS16 (11746705_a_at) / RFU VCAN (11755009_s_at) / Fold change /veh VCAN (11755009_s_at) / RFU RHOB (11743442_s_at) / Fold change /veh RHOB (11743442_s_at) / RFU RGS16 (11720943_a_at) / Fold change /veh RGS16 (11720943_a_at) / RFU RGS16 (11720944_at) / Fold change /veh RGS16 (11720944_at) / RFU, VPS4B / Fold change vs veh, VPS4B / RFU, CREB1 / Fold change vs veh, CREB1 / RFU, DNAJC13 / Fold change vs veh, DNAJC13 / RFU, GNAQ / Fold change vs veh, GNAQ / RFU, CDK5R1 / Fold change vs veh, CDK5R1 / RFU, ZRANB3 / Fold change vs veh, ZRANB3 / RFU, CUL4A / Fold change vs veh, CUL4A / RFU, CCNY / Fold change vs veh, CCNY / RFU, UFL1 / Fold change vs veh, UFL1 / RFU, COG3 / Fold change vs veh, COG3 / RFU, DIAPH2 / Fold change vs veh, DIAPH2 / RFU, SKA2 / Fold change vs veh, SKA2 / RFU, AFF3 / Fold change vs veh, AFF3 / RFU, LMF1 / Fold change vs veh, LMF1 / RFU, IPO11 / Fold change vs veh, IPO11 / RFU, DFFB / Fold change vs veh, DFFB / RFU, FOXP1 / Fold change vs veh, FOXP1 / RFU, CARD8 / Fold change vs veh, CARD8 / RFU, STRN3 / Fold change vs veh, STRN3 / RFU, ADK / Fold change vs veh, ADK / RFU, RASSF2 / Fold change vs veh, RASSF2 / RFU, WIPF1 / Fold change vs veh, WIPF1 / RFU, LARP1B / Fold change vs veh, LARP1B / RFU, RASA1 / Fold change vs veh, RASA1 / RFU, RB1 / Fold change vs veh, RB1 / RFU, PPFIA1 / Fold change vs veh, PPFIA1 / RFU, MAT2A / Fold change vs veh, MAT2A / RFU, CCT5 / Fold change vs veh, CCT5 / RFU, WDR92 / Fold change vs veh, WDR92 / RFU, CUX1 / Fold change vs veh, CUX1 / RFU, TTC7A / Fold change vs veh, TTC7A / RFU, TMEM135 / Fold change vs veh, TMEM135 / RFU, DEPTOR / Fold change vs veh, DEPTOR / RFU, CPM / Fold change vs veh, CPM / RFU, DNAJB6 / Fold change vs veh, DNAJB6 / RFU, CACNA2D3 / Fold change vs veh, CACNA2D3 / RFU, DTX4 / Fold change vs veh, DTX4 / RFU, TFCP2 / Fold change vs veh, TFCP2 / RFU, GMCL1 /// GMCL1P1 / Fold change vs veh, GMCL1 /// GMCL1P1 / RFU, AEBP2 / Fold change vs veh, AEBP2 / RFU, SNHG1 /// SNORD22 /// SNORD25 /// SNORD26 /// SNORD27 /// SNORD28 /// SNORD29 /// SNORD31 / Fold change vs veh, SNHG1 /// SNORD22 /// SNORD25 /// SNORD26 /// SNORD27 /// SNORD28 /// SNORD29 /// SNORD31 / Fold change (Aza/veh), C12orf56 (ProbeSet 11735607_a_at) / Fold change (ACY-1035/veh), C12orf56 (ProbeSet 11735607_a_at) / Fold change (Aza/veh), FGFR1OP (ProbeSet 11751329_s_at) / Fold change (ACY-1035/veh), FGFR1OP (ProbeSet 11751329_s_at) / Fold change (Aza/veh), VPS36 (ProbeSet 11739960_a_at) / Fold change (ACY-1035/veh), VPS36 (ProbeSet 11739960_a_at) / RFU SYPL1 (11715823_x_at) / Fold change /veh SYPL1 (11715823_x_at) / RFU IGFBP7 (11715501_s_at) / Fold change /veh IGFBP7 (11715501_s_at) / RFU REEP3 (11722064_at) / Fold change /veh REEP3 (11722064_at) / RFU IGLL1 (11728026_x_at) / Fold change /veh IGLL1 (11728026_x_at): dose or concentration left out as unconfirmed
Conditions: ProbeSet 11757268_x_at; LIST B

## Nc1ccc(-c2cccs2)cc1NC(=O)c1ccc2c(c1)cc(C1CC1)n2CCN1CCOCC1 [ACY-1035]
  RFU, HNRNPA1: 4786.54 RFU
